Assays:
[1] = tested on: lipoxygenase; conditions: known inhibitors; cited from earlier work
[2] = tested on: cyclooxygenase; conditions: known inhibitors; cited from earlier work
[3] = tested on: lipoxygenase; experiment: Inhibition of leukotriene formation (LTC4, LTD4, LTE4 in pleural exudate, HPLC) in A23187-induced pleurisy, oral administration; assay type: in vivo, rats (Wistar-strain, male); conditions: rat pleural exudate, 3 mg/kg p.o., 60 minutes before intrapleural A23187
Method: (1) Preparation of A23187 -induced pleurisy
Under ether anaesthesia, 0.2 ml of 100,μM […] (prepared by adding injectable distilled water in a 2mM A23187 ethanol solution) was administered intrapleurally to rats (Wistar-strain, male, 11 weeks old). Twenty minutes after the administration, the rats were exsanguinated and the pleural exudate was harvested. The test compound was suspended or dissolved in a 0.5% carboxymethyl cellulose solution containing 2% Tween, and orally administered to the animals 60 minutes before the intrapleural administration of A23187.
(2) Measurement of the leukotrienes [LTC4, LTD4 and LTE4 ]
To the exudate obtained in (1) was added 4 times its volume of ice-cooled ethanol. They were well mixed, and then centrifuged. The supernatant was concentrated under reduced pressure, and 1.0 ml of 0.01M acetate buffer (pH 5.9) was added to the residue. The solution was added to SEP-PAK® (C18) and leukotrienes were partially purified. Fractions eluted with 5 ml of 60% ethanol/0.01M acetate buffer (pH 5.9) were collected, and the solvent was evaporated under reduced pressure.
The residue was dissolved in 1 ml of methanol, and the solution was filtered on a filter having a pore size of 0.45 microns, and evaporated under reduced pressure. The residue was dissolved in the mobile phase (acetonitrile/water/acetic acid/triethylamine, 35/63.5/1.5/2.2) used in high performance liquid chromatography (HPLC) and subjected to analysis by HPLC. A calibration curve was obtained by a fixed amount of PGB2 as an internal standard substance and standard LTC4, LTD4 and LTE4 were added to a buffer, followed by the same extraction, partial purification and HPLC analysis as above. The amounts of the leukotrienes in the sample were calculated from the calibration curve.
The activity of 2-(4-hydroxy-3,5-dimethylphenyl)-5-methoxy-3-methylindole (compound A) which is disclosed in Example 1 of U.S. Pat. No. 4,695,381 and was selected as an active control is also shown below.

| Compound | lipoxygenase inhibition [1] | cyclooxygenase inhibition (lack of specificity) [2] | percent inhibition of LTC4 + LTD4 + LTE4 [3] | LTC4 + LTD4 + LTE4 ([3]; mean ± S.E.M., vehicle 414.82 ± 49.81 ng) |
| --- | --- | --- | --- | --- |
| NC1=NN(c2cccc(C(F)(F)F)c2)CC1 [BW755C, 3-amino-1-(3-trifluoromethylphenyl)-2-pyrazoline] | inhibit not only lipoxygenase | lack specificity and inhibit not only lipoxygenase but also cyclooxygenase | – | – |
| COc1ccc2[nH]c(-c3cc(C)c(OC(=O)CCC(=O)O)c(C)c3)c(C)c2c1 [Example 1] | – | – | 53.4% | 193.30 ± 28.37 ng |
| CCCCCC#CCC#CCC#CCC#CCCCC(=O)O [5,8,11,14-eicosatetraynoic acid] | inhibit not only lipoxygenase | lack specificity and inhibit not only lipoxygenase but also cyclooxygenase | – | – |
| COc1ccc2[nH]c(-c3cc(C)c(O)c(C)c3)c(C)c2c1 [Compound A, 2-(4-hydroxy-3,5-dimethylphenyl)-5-methoxy-3-methylindole] | – | – | 32.0% | – |

From patent US4910216A, “2-(3,5-dimethyl-4-hydroxyphenyl)indole derivatives” (Teikoku Hormone Mfg. Co., Ltd., priority 1988, dated 1990)
